What was measured:
[1] = test system: A375; experiment: 48 h Cytotoxicity A375; format: cell-based; details: Homo sapiens, A-375
[2] = molecular target: EmCV Cap-dependent translation; experiment: In vitro translation assay, FF-EmCV-Ren construct, cap-dependent (FF luciferase); format: biochemical, rabbit reticulocyte lysates
Source text: (§1) The bicistronic dual-reporter constructs that contain the firefly luciferase (FF) sequence, followed by the (encephalomyocarditis virus) EmCV and Hepatitis C virus (HCV) IRES, respectively, and the Renilla reniformis (Ren) luciferase sequence, has been previously described (Bordeleau Me., et al. Functional characterization of IRESes by an inhibitor of the RNA helicase eIF4A. Nature chemical biology. 2006; 2:213-20). For measurement of translation from the FF-EmCV-Ren and FF-HCV-Ren constructs, rabbit reticulocyte lysates (RRL) (Life Technologies, Carlsbad, Calif., USA) and the Dual-Glo (Promega, Madison, Wis., USA) read-outs were chosen. Two μl rabbit reticulocyte lysates mixed with Translation Mix 20× (-Met) and Translation Mix 20× (-Leu) in a ratio of 1:1 were pre-incubated with test compounds in 1536-well plates for 1 h at room temperature. Then, translation was started by adding 0.1 μg RNA per well and incubated for 2 h at 30° C. After a short chill phase, 2.5 μl Dual-Glo reagent 1 was added to each well and incubated for 10 min before reading the FF luciferase activity with the ViewLux uHTS Microplate Imager (Perkin Elmer, Waltham, Mass., USA). Directly after, 2.5 μl Dual-Glo reagent 2 was dispensed to each well and incubated at room temperature for 10 min before reading the Ren luciferase activity on the ViewLux. To exclude the possibility that test compounds interfere with any of the luciferase activities, a counter assay was performed in which the compounds were added after the completion of the in vitro translation.

[3] = molecular target: EmCV Cap-independent translation; experiment: In vitro translation assay, FF-EmCV-Ren construct, cap-independent (Ren luciferase); format: biochemical, rabbit reticulocyte lysates
Source text: as §1

[4] = molecular target: HCV cap-dependent translation; experiment: In vitro translation assay, FF-HCV-Ren construct, cap-dependent (FF luciferase); format: biochemical, rabbit reticulocyte lysates
Source text: as §1

[5] = molecular target: HCV cap-independent translation; experiment: In vitro translation assay, FF-HCV-Ren construct, cap-independent (Ren luciferase); format: biochemical, rabbit reticulocyte lysates
Source text: as §1

Compound	IC50 [1] [µM]	IC50 [2] [µM]	IC50 [3] [µM]	IC50 [4] [µM]	IC50 [5] [µM]
CN(C)c1ccc(-c2c(C(=O)/C=C/c3ccccn3)c(=O)[nH]c3ccc(Cl)cc23)cc1 [Compound 108, 3-((2E)-3-(2-pyridyl)prop-2-enoyl)-4-[4-(dimethylamino)phenyl]-6-chlorohydroquinolin-2-one]	2 to 10	2 to 10	2 to 10	10 to 20	2 to 10
O=C(/C=C/c1cccs1)c1c(-c2ccccc2)c2cc(Cl)ccc2[nH]c1=O [Compound 51, 6-Chloro-4-phenyl-3-(3-thiophen-2-yl-acryloyl)-1H-quinolin-2-one]	2 to 10	> 20	> 20	10 to 20	> 20
Cc1ccc2[nH]c(/C=C/C(=O)c3c(-c4ccccc4)c4cc(Cl)cnc4[nH]c3=O)nc2c1 [Compound 114, (E)-6-chloro-3-(3-(5-methyl-1H-benzo[d]imidazol-2-yl)acryloyl)-4-phenyl-1,8-naphthyridin-2(1H)-one]	2 to 10	2 to 10	10 to 20	> 20	10 to 20
Cn1ccnc1/C=C/C(=O)c1c(-c2ccccc2)c2cc(Cl)ccc2[nH]c1=O [Compound 45, 6-Chloro-3-[3-(1-methyl-1H-imidazol-2-yl)-acryloyl]-4-phenyl-1H-quinolin-2-one]	2 to 10	2 to 10	2 to 10	10 to 20	2 to 10
O=C(/C=C/c1ccccn1)c1c(-c2ccc(C(F)(F)F)cc2)c2cc(Cl)ccc2[nH]c1=O [Compound 84, 3-((2E)-3-(2-pyridyl)prop-2-enoyl)-6-chloro-4-[4-(trifluoromethyl)phenyl]hydroquinolin-2-one]	< 2	2 to 10	2 to 10	2 to 10	2 to 10
O=C(/C=C/c1cncc(F)c1)c1c(-c2cncc(Cl)c2)c2cc(Cl)ccc2[nH]c1=O [Compound 101, 3-[(2E)-3-(5-fluoro(3-pyridyl))prop-2-enoyl]-6-chloro-4-(5-chloro(3-pyridyl))hydroquinolin-2-one]	2 to 10	2 to 10	10 to 20	10 to 20	10 to 20
N#Cc1ccc(-c2c(C(=O)/C=C/c3ccccn3)c(=O)[nH]c3ccc(Cl)cc23)cc1 [Compound 90, 4-[3-((2E)-3-(2-pyridyl)prop-2-enoyl)-6-chloro-2-oxo-4-hydroquinolyl]benzenecarbonitrile]	< 2	2 to 10	2 to 10	10 to 20	2 to 10
Cc1cncc(-c2c(C(=O)/C=C/c3ccccn3)c(=O)[nH]c3ccc(Cl)cc23)c1 [Compound 96, 3-((2E)-3-(2-pyridyl)prop-2-enoyl)-6-chloro-4-(5-methyl(3-pyridyl))hydroquinolin-2-one]	2 to 10	10 to 20	2 to 10	> 20	10 to 20
O=C(/C=C/c1nc2ccccc2[nH]1)c1c(C2CCCCC2)c2cc(Cl)ccc2[nH]c1=O [Compound 11, (E)-3-(3-(1H-benzo[d]imidazol-2-yl)acryloyl)-6-chloro-4-cyclohexylquinolin-2(1H)-one]	< 2	2 to 10	2 to 10	2 to 10	2 to 10
Cc1ccnc(/C=C/C(=O)c2c(-c3ccccc3)c3cc(Cl)ccc3[nH]c2=O)c1 [Compound 70, 3-[(2E)-3-(4-methyl(2-pyridyl))prop-2-enoyl]-6-chloro-4-phenylhydroquinolin-2-one]	2 to 10	2 to 10	2 to 10	2 to 10	2 to 10
COc1ccc(-c2c(C(=O)/C=C/c3cncc(F)c3)c(=O)[nH]c3ccc(Cl)cc23)cc1 [Compound 79, 3-[(2E)-3-(5-fluoro(3-pyridyl))prop-2-enoyl]-6-chloro-4-(4-methoxyphenyl)hydroquinolin-2-one]	< 2	2 to 10	2 to 10	2 to 10	2 to 10
Cn1c(/C=C/C(=O)c2c(-c3ccccc3)c3cc(Cl)ccc3n(C)c2=O)nc2ccccc21 [Compound 59, 6-Chloro-1-methyl-3-[3-(1-methyl-1H-benzoimidazol-2-yl)-acryloyl]-4-phenyl-1H-quinolin-2-one]	2 to 10	2 to 10	2 to 10	2 to 10	2 to 10
N#Cc1cncc(/C=C/C(=O)c2c(-c3ccccc3)c3cc(Cl)ccc3[nH]c2=O)c1 [Compound 72, 5-[(1E)-3-(6-chloro-2-oxo-4-phenyl(3-hydroquinolyl))-3-oxoprop-1-enyl]pyridine-3-carbonitrile]	< 2	2 to 10	2 to 10	2 to 10	2 to 10
CN(C)c1ccc(/C=C/C(=O)c2c(-c3ccccc3)c3cc(Cl)ccc3[nH]c2=O)cc1 [Compound 35, 6-Chloro-3-[3-(4-dimethylamino-phenyl)-acryloyl]-4-phenyl-1H-quinolin-2-one]	> 20	> 20	> 20	> 20	> 20
O=C(/C=C/c1nc2ccccc2[nH]1)c1c(-c2ccc(Cl)cc2)c2cc(Cl)ccc2[nH]c1=O [Compound 5, 3-(3-1H-Benzoimidazol-2-yl-acryloyl)-6-chloro-4-(4-chloro-phenyl)-1H-quinolin-2-one]	< 2	2 to 10	10 to 20	10 to 20	10 to 20
Nc1ccc2[nH]c(=O)c(C(=O)/C=C/c3nc4ccccc4[nH]3)c(-c3ccccc3)c2c1 [Compound 15, 6-Amino-3-(3-1H-benzoimidazol-2-yl-acryloyl)-4-phenyl-1H-quinolin-2-one]	> 20	10 to 20	10 to 20	10 to 20	> 20
O=C(/C=C/c1cncc(F)c1)c1c(-c2ccc(F)cc2)c2cc(Cl)ccc2[nH]c1=O [Compound 77, 3-[(2E)-3-(5-fluoro(3-pyridyl))prop-2-enoyl]-6-chloro-4-(4-fluorophenyl)hydroquinolin-2-one]	< 2	2 to 10	2 to 10	2 to 10	2 to 10
COc1ccc(/C=C/C(=O)c2c(-c3ccccc3)c3cc(Cl)ccc3[nH]c2=O)c(F)c1 [Compound 43, 6-Chloro-3-[3-(2-fluoro-4-methoxy-phenyl)-acryloyl]-4-phenyl-1H-quinolin-2-one]	< 2	> 20	> 20	2 to 10	2 to 10
COCc1cncc(/C=C/C(=O)c2c(-c3ccccc3)c3cc(Cl)ccc3[nH]c2=O)c1 [Compound 73, 3-{(2E)-3-[5-(methoxymethyl)(3-pyridyl)]prop-2-enoyl}-6-chloro-4-phenylhydroquinolin-2-one]	< 2	2 to 10	2 to 10	2 to 10	2 to 10
O=C(/C=C/c1nc2ccccc2[nH]1)c1c(-c2ccccc2)c2cccnc2[nH]c1=O [Compound 25, 3-(3-1H-Benzoimidazol-2-yl-acryloyl)-4-phenyl-1H-[1,8]naphthyridin-2-one]	10 to 20	10 to 20	10 to 20	10 to 20	> 20
O=C(/C=C/c1nc2ccccc2n1Cc1ccccc1)c1c(-c2ccccc2)c2cc(Cl)ccc2[nH]c1=O [Compound 55, 3-[3-(1-Benzyl-1H-benzoimidazol-2-yl)-acryloyl]-6-chloro-4-phenyl-1H-quinolin-2-one]	2 to 10	2 to 10	2 to 10	2 to 10	2 to 10
O=C(/C=C/c1ccccc1)c1c(-c2ccccc2)c2cc([N+](=O)[O-])ccc2[nH]c1=O [Compound 16, 6-Nitro-4-phenyl-3-(3-phenyl-acryloyl)-1H-quinolin-2-one]	2 to 10	2 to 10	2 to 10	10 to 20	2 to 10
O=C(/C=C/c1nc2ccccc2[nH]1)c1c(-c2ccccc2)c2cc([N+](=O)[O-])ccc2[nH]c1=O [Compound 13, 3-(3-1H-Benzoimidazol-2-yl-acryloyl)-6-nitro-4-phenyl-1H-quinolin-2-one]	2 to 10	2 to 10	2 to 10	10 to 20	2 to 10
Cc1cncc(/C=C/C(=O)c2c(-c3ccccc3)c3cc(Cl)ccc3[nH]c2=O)c1 [Compound 74, 3-[(2E)-3-(5-methyl(3-pyridyl))prop-2-enoyl]-6-chloro-4-phenylhydroquinolin-2-one]	< 2	2 to 10	2 to 10	2 to 10	2 to 10

— patent publication US10577349B2 (Sanford Burnham Prebys Medical Discovery Institute, priority 2015, dated 2020)
